Experimental data from US9079152B2, “Encapsulated essential oils” (BEN GURION UNIVERSITY OF THE NEGEV RESEARCH AND DEVELOPMENT …, priority 2004, dated 2015).

System: mosquito larvae
Test: Comparison tests of cyromazine for larvicidal activity
Format: in vivo
Settings: 0.5 g/m^2 of cyromazine; after 3 days
Method: Tests with cyromazine, an insect growth regulator produced by Novartis, was tested for larvicidal activity, either as such or in encapsulated form An effective concentration of 0.5 g/m^2 of cyromazine gave 60% mortality after 3 days, and the best sustained-release formulation gave. 100% mortality after 8 days.

Q: For Nc1nc(N)nc(NC2CC2)n1 [cyromazine], which mortality is on record?
A: 60%
